Experimental data: patent US11078496B2, “System for F-box hormone receptor regulated protein expression in mammalian cells” (ICAHN SCHOOL OF MEDICINE AT MOUNT SINAI, priority 2016, dated 2021)

Test system: A-CHK1 mESCs
Assay: Aphidicolin sensitivity of A-CHK1 mESCs (crystal violet staining)
Type: cell-based, mouse
Method: FIG. 5A is a western blot analysis depicting endogenous CHK1 (*) and AID^47-CHK1 (A-CHK1, **) in four selected clones and in parental non-infected mESCs. […] serves as a loading control. Experiment was repeated three times for clones #1 and #2, and a representative blot is presented. In FIG. 5B, A-CHK1 #2 mESCs were treated with ethanol (“Con”) or auxin (“IAA”) for 1 day. Cells were then treated with the indicated concentrations of aphidicolin (“Aph”). Equal concentrations of DMSO were applied to all conditions. The next day, cells were stained with crystal violet and plates were scanned. […] In FIG. 5C, mESC clones were pretreated with […] aphidicolin for 1 day and were then treated with auxin for the indicated time periods. Left panel: mitotic index was calculated as the percentage of H3^pS10-positive cells with 4N DNA content, measured by flow cytometry. […] Tyr15 phosphorylation of CDK1 (“CDKlpY^15”) was detected using a phospho-specific antibody. β-Actin serves as a loading control. […]
CCE mESCs were infected with pRAIDRS A-CHK1 or GFP-A. Selected clones were analyzed for their CHK1-dependent response to aphidicolin treatment. […] Cells were then treated with 1 μM 5 aphidicolin (“Aph”) or 0.001% DMSO for 12 hours and analyzed for DNA content using propidium iodide (“PI”). […] Apoptotic index was calculated as the percentage of Annexin V-positive, 7-AAD-negative cells. […]

SMILES: C[C@@]1(CO)[C@H](O)CC[C@@]2(C)[C@H]1CC[C@H]1C[C@@H]3C[C@@]12CC[C@]3(O)CO [aphidicolin, Aphidicolin]
- aphidicolin concentration after which cells died (auxin-treated (CHK1-depleted) A-CHK1 mESCs): 0.1 mM
- fold higher aphidicolin concentration at which control cells survived (control-treated A-CHK1 cells versus auxin-treated cells): 100 fold
